From PMC7343278, “A Meroisoprenoid, Heptenolides, and C-Benzylated Flavonoids from Sphaerocoryne gracilis ssp. gracilis” (Journal of Natural Products, 2020)
Where two headings read alike, the source gives them in different places.

Key:
[1] = test system: HEK-293 human embryonic kidney cells; experiment: Cytotoxicity against human embryonic kidney cells; type: cell-based; settings: for inhibition at 20 µM: read-out: Percentage growth inhibition at 20 μM, HEK-293
Method: (§1) Antiplasmodial activity was determined using a high-content imaging assay, as described previously.[10],[24] The cytotoxicity of the antiplasmodial compounds was evaluated against human embryonic kidney cells (HEK-293) following an established protocol.[10],[24] Human red blood cells for culture of P. falciparum were provided by the Australian Red Cross Blood Bank in accordance with their routine Material Transfer Agreement (MTA) for nonclinical blood product supply. These bioassay studies were approved by the Griffith University Biosafety and Human Ethics Committee (GU ref no. ESK/03/12/HREC; 03/08/11019).

[2] = test system: Plasmodium falciparum chloroquine-sensitive (3D7) strain; experiment: Antiplasmodial high-content imaging assay, 3D7 strain; type: cell-based; settings: for IC50: Plasmodium falciparum; for inhibition of plasmodial growth at 20 μM: 20 μM concentration, strain not specified (3D7/Dd2)
[3] = test system: Plasmodium falciparum chloroquine-resistant (Dd2) strain; experiment: Antiplasmodial high-content imaging assay, Dd2 strain; type: cell-based
Method: as §1

[4] = test system: cap-dependent and independent translation initiation; experiment: Translation inhibition assay (luciferase model); type: biochemical; settings: in vitro
Method: Luciferase inhibition activity assays were performed following standard procedures described previously.[9],[10]

[5] = P. falciparum 3D7 (chloroquine-sensitive), read-out: IC50 3D7
[6] = P. falciparum Dd2 (chloroquine-resistant), read-out: IC50 Dd2

## C[C@H]1[C@@H](O)O[C@@H]2O[C@@]3(C)CC[C@H]4[C@H](C)CC[C@@H]1[C@@]24OO3 [DHA]
[1]; HEK293, HEK-293 cells
  inhibition at 20 µM: 50%

## C[C@H]1[C@H](OC(=O)CCC(=O)O)O[C@@H]2O[C@@]3(C)CC[C@H]4[C@H](C)CC[C@@H]1[C@@]24OO3 [artesunate]
[1]; HEK293, HEK-293 cells
  inhibition at 20 µM: 75%

## CCN(CC)CCCC(C)Nc1ccnc2cc(Cl)ccc12 (stereo not drawn) [chloroquine]
[2]; 3D7, read-out: IC50 3D7
  IC50: 4.5 nM
[3]; DD2, read-out: IC50 Dd2
  IC50: 46 nM
[1]; HEK293, read-out: Percentage growth inhibition at 40 μM, HEK-293
  inhibition at 40 µM: 60%

## O=C1C[C@@H](c2ccccc2)Oc2cc(O)c(Cc3cccc(O)c3O)c(O)c21 [compound 4, (S)-6-(2,3-dihydroxybenzyl)-5,7-dihydroxy-2-phenylchroman-4-one]
[2]
  inhibition of plasmodial growth at 20 μM: inhibited plasmodial growth moderately
[4]
  translational inhibitory activity: none showed significant translational inhibitory activity

## O=c1cc(-c2ccccc2)oc2c(Cc3cccc(O)c3O)c(O)cc(O)c12 [compound 5, 8-(2,3-dihydroxybenzyl)-5,7-dihydroxy-2-phenyl-4H-chromen-4-one]
[2]
  inhibition of plasmodial growth at 20 μM: inhibited plasmodial growth moderately
[4]
  translational inhibitory activity: none showed significant translational inhibitory activity

## O=C1C[C@@H](c2ccccc2)Oc2c(Cc3cccc(O)c3O)c(O)c(Cc3cccc(O)c3O)c(O)c21 [compound 6, 3″-hydroxygracinol]
[4]
  translational inhibitory activity: none showed significant translational inhibitory activity

## O=C1C=C/C(=C/[C@H](O)COC(=O)c2ccccc2)O1 [compound 9, (Z)-melodorinol]
[4]
  translational inhibitory activity: none showed significant translational inhibitory activity

## COC(=O)/C=C/C(=O)C[C@H](O)COC(=O)c1ccccc1 [compound 10, 7-hydroxy-6-hydromelodienone]
[1]; HEK293, HEK-293 cells, 40 μM, read-out: Percentage growth inhibition at 40 μM, HEK-293
  inhibition at 40 µM: 100%
[4]
  translational inhibitory activity: none showed significant translational inhibitory activity

## O=c1cc(-c2ccccc2)oc2cc(O)cc(O)c12 [compound 12, 5,7-dihydroxyflavone]
[4]
  translational inhibitory activity: none showed significant translational inhibitory activity

## COc1ccc(C[C@H](N)C(=O)N[C@H]2[C@@H](O)[C@H](n3cnc4c(N(C)C)ncnc43)O[C@@H]2CO)cc1 [puromycin]
[2]; [5]
  IC50: 23 nM
[3]; [6]
  IC50: 45 nM
[1]; HEK293, HEK-293 cells
  IC50: 360 nM

## CCc1nc(N)nc(N)c1-c1ccc(Cl)cc1 [pyrimethamine]
[1]; HEK293, HEK-293 cells
  IC50: 4200 nM

## COc1ccc2nc3cc(Cl)ccc3c(Nc3cc(CN4CCCC4)c(O)c(CN4CCCC4)c3)c2n1 [pyronaridine]
[2]; [5]
  IC50: 3.6 nM
[3]; [6]
  IC50: 7.5 nM
[1]; HEK293, HEK-293 cells
  IC50: 1800 nM
